In EP2451450B1, “Inhibitors of proline racemase enzymes for the treatment of Trypanosoma spp infections” (Institut Pasteur, priority 2009, dated 2011):

What was measured:
TcPRAC [1] = target: T1, TcPRAC (Trypanosoma cruzi, UniProt Q4DA80); test: L-proline racemization assay, formed D-proline determined by DAAOx test; assay type: biochemical; conditions: ligand 10 µM; 10 mM L-proline; 22.4 mg/ml TcPRAC; 5.0mM without ligand
T1 construct: implied only by nickel IMAC purification; made in house; host or cells: E. coli BL21 (DE3)
T1 sequence (Q4DA80 32-423): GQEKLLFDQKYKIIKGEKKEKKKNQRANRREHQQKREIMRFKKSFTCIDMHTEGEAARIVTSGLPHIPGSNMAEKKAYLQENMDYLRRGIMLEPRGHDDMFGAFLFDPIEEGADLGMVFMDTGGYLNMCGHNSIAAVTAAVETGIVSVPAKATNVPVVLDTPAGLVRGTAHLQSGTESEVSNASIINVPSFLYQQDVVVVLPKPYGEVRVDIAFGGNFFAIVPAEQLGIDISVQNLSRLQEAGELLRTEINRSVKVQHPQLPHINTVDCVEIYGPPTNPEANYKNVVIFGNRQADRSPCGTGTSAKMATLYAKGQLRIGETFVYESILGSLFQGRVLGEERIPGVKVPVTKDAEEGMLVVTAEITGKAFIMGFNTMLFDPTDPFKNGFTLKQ
Protocol: (§1) Briefly, classical assays of Proline racemization induced by TcPRAC were performed in tubes in a final volume of 1.5 ml and optical rotations measured in a polarimeter 241MC (Perkin Elmer). Parallel assays of Proline racemization were transposed into microplates in a final volume of 100 µl, as follows: serial dilutions of L- Proline ranging from 40 mM to 2.5 mM were prepared in 0.2 M sodium acetate pH 6.0 containing 0.25 mM rTcPRAC and loaded into microplate wells in the presence or in the absence of 0 - 20 µM pyrrole-2 carboxylic acid (PYC) or of similar dilutions of unknown potential inhibitors. Specific control wells were included omitting the TcPRAC and/or the PYC.
Microplates were incubated for 30 minutes at 37° C. Enzyme activity was then inactivated by heating the plate for 15 seconds in a microwave oven at 900 watts after shifting the pH of wells to 8.3 by addition of 6.8 µl of 0.235 M sodium Pyrophosphate. 50 µl of each well were used to test the presence of D-Proline using the DAAOx (D-amino acid oxidase) test described below. L- amino acids may react at very low rate with DAAOx. For instance, DAAOx reacts with L-Proline 300 times slower than D-Proline. Consequently, when assessing amino acid racemization products, standards should consist of serial dilution of equimolar mixtures of specific D- and L-amino acids ranging from 0 to 20 mM (10 mM final) to take into account any interference of possible reactivity with DAAOx of the L- form of amino acids present in the samples.
Solution A consisting of 0.2 M sodium acetate/0.016 M sodium pyrophosphate (Pop) buffer, pH 8.3 was used to prepare the enzyme stock solutions conserved in 50% glycerol, namely: 50 U/ml D-amino acid oxidase from pig kidney (DAAOx, Sigma) and 5000 U/ml Horse Raddish Peroxydase (HRP, Sigma). Stock solutions of L- proline (1M), D- proline (1M) and Pyrrole-2-carboxylic acid (10 mM) (PYC, Sigma) are also prepared in solution A. 10^-1 M FAD (Sigma) stock was prepared in water. Solution B consists in adding to solution A the following reagents at a final concentration in the assay of 1 U/ml for DAAOx, 0.5 mg/ml orthophenylenediamine (OPD, Sigma), 37.5 U/ml HRP and FAD (1.5x10^-5 M FAD). The test is run in 96 wells micro plates (Nunc, Denmark). […] OD 490nm - 650nm is obtained with a microtiter plate reader (Molecular Devices), and compared to those obtained with blank control wells.
The values presented in Table 2A correspond to racemization reactions performed in the absence or in the presence of 10 µM concentration of the different ligands. […] Briefly, 22.4 mg/ml of active TcPRAC was used in the racemization assays of 10 mM L-proline substrate and the concentration of formed D-proline was determined by the DAAOx test, as described in the Material and Methods. […]

TcPRAC [2] = target: T1, TcPRAC; test: L-proline racemization assay by polarimetry; assay type: biochemical; conditions: for potency relative to PYC in terms of TcPRAC inhibition: based on the DAAOx test and polarimetry; for Racemization Inhibition: L-Proline 20 mM, 30 minutes 37°C, 0.25 µM TcPRAC
Protocol: as §1
The values presented in Table 2B correspond to racemization reactions performed in the absence or in the presence of the different inhibitors. Note that 6 µM PYC is necessary to inhibit 100 % of the racemization of 10-20 mM L-proline. Briefly, L-Proline (20 mM) were incubated for 30 minutes at 37°C in test tubes with or without 0.25 µM TcPRAC in 0.2 M sodium acetate pH 6. Reactions were stopped by heating at 65° C for 10 minutes. Reaction volumes were analyzed for D-Proline formation, by measuring optical rotations in a polarimeter (365nm).

SMILES	Formed D-Proline (TcPRAC [1])	potency relative to PYC in terms of TcPRAC inhibition (TcPRAC [2])	Racemization Inhibition (TcPRAC [2]; ligand 2.5 µM)	Racemization Inhibition (TcPRAC [2]; ligand 10.0 µM)	Racemization Inhibition (TcPRAC [2]; ligand 3.0 µM)
O=C(O)/C=C/C(=O)CBr [Br-OxoPA, (E)-5-bromo-4-oxopent-2-enoic acid]	< 0,3 mM	4 fold	50.0%	81.3%	
CC(=O)/C=C/C(=O)O [OxoPA, (E)-4-oxopent-2-enoic acid]	< 0,3 mM	2 fold			50.0%
